Results reported in patent US12404243B2, “Inhibitors of the Wnt/beta-catenin pathway” (The Regents of the University of California, priority 2018, dated 2025).
Entries after “also recorded” stand apart in the source; their conditions may differ.

How the values were obtained:
[1] = system: Wnt/β-catenin-mediated transcription; test: Topflash reporter activity induced by LiCl in 293T/Top cells; format: cell-based; conditions: 20 mM LiCl, increasing concentration of JC001 (FIG. 5A)
Experimental: (§1) 293T cells were maintained in DMEM medium containing 10% FBS and antibiotics (penicillin and streptomycin) at 37° C. in 5% CO2. Cells were stably infected with lentiviruses expressing the TopFlash reporter (293T/Top cells). The β-catenin mutant (β-cat*, the constitutively active mutant) construct was prepared using the retroviral expression vector by standard PCR. For viral transduction, retrovirus was obtained by co-trasfection of pQCXIP-β-cat* with packaging plasmids into 293T cells following the manufacturer's instructions. 293T/Top stable cells were seeded in 10 cm dish and incubated overnight. The next day cells were treated with retroviral particles. After 12 hours, the medium was replaced with fresh medium. 2 days post virus infection, the cells were selected with puromycin for 5 days to generate the 293T/Top/β-cat* stable cell line.

[2] = system: Wnt/β-catenin-mediated transcription; test: TCF-luciferase activity assay in 293T/Top/β-cat* cells; format: cell-based; conditions: summary of FIGS. 5A, B (293T/Top cells + LiCl) and 6A-C (293T/Top/β-cat* cells)
Experimental: as §1
293 T/Top/β-cat* cells were plated at 40%-50% confluences in 12-well plate for 8 hours and then treated with Wnt inhibitors overnight. The luciferase activity of total cell lysates was measured using Luciferase Assay System (Promega). The related TCF-luciferase activity was normalized against the protein concentration of each cell lysate sample.

SW480 tumor xenografts = test: Mouse xenografts of SW480 cells; format: in vivo, nude mice; conditions: for tumor volumes / actual tumor sizes at the end of treatment / actual tumor weights at the end of treatment / tumor sizes at the end of treatment / tumor weights at the end of treatment / tumor volume: SW480 xenografts, 10 mg/kg; for actual tumor weights at the end of treatment: day 12 to day 20 (FIG. 8C); for tumor growth: mouse xenograft studies of human colon cancer, summary of FIGS. 7A-D, 8A-C, 9A-C; for tumor volume: day 12 to day 21 (FIG. 9A)
Experimental: 5×10^5 of SW480 cells were injected subcutaneously into the flank area of 6-8-week-old nude mice. Tumor volume was measured by using an electronic caliper and calculated with the formula length×width^2×0.5, every 2 days. 12 days after inoculation, tumor bearing mice were administered Wnt inhibitors (dissolved in 10% DMSO+20% Cremophor EL+70% normal saline) via intraperitoneal injection for 5 days per week for 10 days at 10 mg/kg. Animal body weights were measured before drug treatments and at the end of the experiments. At the end of the experiments, animals were euthanized with carbon dioxide, followed by cervical dislocation. The tumors were dissected and weighed on the digital balance. We housed mice in pathogen-free facilities under 12-h light and 12-h dark cycle. The animal protocol and experimental procedures were approved by the Division of Laboratory Animal Medicine of UCLA and were in accordance with the US National Institute of Health guidelines.

Structure (SMILES) | Topflash reporter activities induced by LiCl [1] | Wnt/β-catenin-mediated transcription [2] | tumor volumes (SW480 tumor xenografts; day 12 to day 20 (FIG. 8A)) | actual tumor sizes at the end of treatment (SW480 tumor xenografts; day 12 to day 20 (FIG. 8B)) | actual tumor weights at the end of treatment (SW480 tumor xenografts) | tumor volumes (SW480 tumor xenografts; day 12 to 22 (FIG. 7A)) | tumor sizes at the end of treatment (SW480 tumor xenografts; day 12 to 22 (FIG. 7B)) | tumor weights at the end of treatment (SW480 tumor xenografts; day 12 to 22 (FIG. 7C)) | tumor growth (SW480 tumor xenografts) | actual tumor sizes at the end of treatment (SW480 tumor xenografts; day 12 to 22 (FIG. 16A)) | tumor weights at the end of treatment (SW480 tumor xenografts; day 12 to 22 (FIG. 16B)) | tumor volumes (SW480 tumor xenografts; day 12 to 22 (FIG. 16C)) | tumor volume (SW480 tumor xenografts) | tumor sizes at the end of treatment (SW480 tumor xenografts; day 12 to day 21 (FIG. 9B)) | tumor weights at the end of treatment (SW480 tumor xenografts; day 12 to day 21 (FIG. 9C))
CN(C)CCC(=O)N1C/C(=C\c2ccccc2)C(=O)/C(=C/c2ccccc2)C1 [JC001, 3,5-Di((E)-benzylidene)-1-(3-(dimethylamino)propanoyl)piperidin-4-one] | inhibit Topflash reporter activities | significantly inhibited | significantly reduced tumor volumes | reduced the size of tumors recovered | significantly reduced the weight of tumors recovered | – | – | – | – | – | – | – | – | – | –
CN(C)CCC(=O)N1C/C(=C\c2ccc(F)c(F)c2)C(=O)/C(=C/c2ccc(F)c(F)c2)C1 [JC026, 3,5-Bis((E)-3,4-difluorobenzylidene)-1-(3-(dimethylamino)propanoyl)piperidin-4-one] | – | significantly inhibited | – | – | – | significantly reduced tumor volumes | significantly reduced the size of tumors recovered | significantly reduced the weight of tumors recovered | significantly inhibited the tumor growth | – | – | – | – | – | –
CCN(CC)CCC(=O)N1C/C(=C\c2ccc(F)c(F)c2)C(=O)/C(=C/c2ccc(F)c(F)c2)C1 [JC049, 1-(3-(Diethylamino)propanoyl)-3,5-bis((E)-3,4-difluorobenzylidene)piperidin-4-one] | – | significantly inhibited | significantly reduced tumor volumes | reduced the size of tumors recovered | significantly reduced the weight of tumors recovered | significantly reduced tumor volumes | significantly reduced the size of tumors recovered | significantly reduced the weight of tumors recovered | significantly inhibited the tumor growth; also recorded: showed the strongest inhibition | reduced the size of tumors recovered | significantly reduced the weight of tumors recovered | significantly reduced tumor volumes | significantly reduce tumor volume | significantly reduced the size of the tumors recovered | significantly reduce the weight of tumors recovered
CN(C)CCS(=O)(=O)N1C/C(=C\c2ccc(F)c(F)c2)C(=O)/C(=C/c2ccc(F)c(F)c2)C1 [JC060, 3,5-Bis((E)-3,4-difluorobenzylidene)-1-((2-(dimethylamino)ethyl)sulfonyl)piperidin-4-one] | – | significantly inhibited | – | – | – | significantly reduced tumor volumes | significantly reduced the size of tumors recovered | significantly reduced the weight of tumors recovered | significantly inhibited the tumor growth | – | – | – | significantly reduce tumor volume | significantly reduced the size of the tumors recovered | significantly reduce the weight of tumors recovered
CN(C)CCC(=O)NC1C/C(=C\c2ccc(F)c(F)c2)C(=O)/C(=C/c2ccc(F)c(F)c2)C1 (stereo not drawn) [JC070, N-(3,5-Bis((E)-3,4-difluorobenzylidene)-4-oxocyclohexyl)-3-(dimethylamino)propanamide] | – | significantly inhibited | – | – | – | significantly reduced tumor volumes | significantly reduced the size of tumors recovered | significantly reduced the weight of tumors recovered | showed some inhibition, but did not reach significance | – | – | – | – | – | –
CN(C)CCOc1ccc(C(=O)NC2C/C(=C\c3ccc(F)c(F)c3)C(=O)/C(=C/c3ccc(F)c(F)c3)C2)cc1 (stereo not drawn) [JC081, N-(3,5-Bis((E)-3,4-difluorobenzylidene)-4-oxocyclohexyl)-4-(2-(dimethylamino)ethoxy)benzamide] | – | significantly inhibited | – | – | – | – | – | – | significantly inhibited the tumor growth | – | – | – | significantly reduce tumor volume | significantly reduced the size of the tumors recovered | significantly reduce the weight of tumors recovered
